Numbering of substitutions follows the chain as printed.
What was measured:
GDAP1ΔTM [1] = target: T1, GDAP1ΔTM (Mus musculus, UniProt O88741); test: native PAGE titration, band quantification, Hill fit; format: binding
T1 sequence (O88741 1-322): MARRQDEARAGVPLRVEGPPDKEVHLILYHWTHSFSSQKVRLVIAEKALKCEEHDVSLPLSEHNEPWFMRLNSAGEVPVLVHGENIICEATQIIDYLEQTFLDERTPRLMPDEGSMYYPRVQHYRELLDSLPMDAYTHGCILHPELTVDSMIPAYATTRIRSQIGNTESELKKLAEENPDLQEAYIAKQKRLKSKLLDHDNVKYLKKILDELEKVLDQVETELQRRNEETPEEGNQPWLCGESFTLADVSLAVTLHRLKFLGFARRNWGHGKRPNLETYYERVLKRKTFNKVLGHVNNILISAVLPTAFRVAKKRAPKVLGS

GDAP1ΔTM [2] = target: T2, GDAP1ΔTM (Mus musculus, UniProt O88741, T157P); test: as above; format: binding
T2 sequence (O88741 1-322 T157P): T1 sequence (O88741 1-322) with T157P

GDAP1ΔTM [3] = target: T1, GDAP1ΔTM; test: anti-4HNE Western blot of Michael adduct formation, Hill fit; format: biochemical
GDAP1ΔTM [4] = target: T1, GDAP1ΔTM; test: fluorescence polarization, N-terminally fluorescein-labelled protein; format: binding

| SMILES | Kd (GDAP1ΔTM [1]) [µM] | Kd (GDAP1ΔTM [2]) [µM] | EC50 (GDAP1ΔTM [3]) [µM] | Kd (GDAP1ΔTM [4]) [µM] |
| --- | --- | --- | --- | --- |
| CCCCCC(O)/C=C/C=O (stereo not shown) [4-hydroxynonenal] | 398 | 1330 ± 259 | 241 ± 52 |  |
| O=C(O)CCCCCCCCCCCCCCC(=O)O [thapsic acid] |  |  |  | ~34 |

From doi:10.1101/2022.10.28.514248v1 (biorxiv, 2022)
